Data published in publication PMC3772838, “Preclinical Development of a Novel Class of CXCR4 Antagonist Impairing Solid Tumors Growth and Metastases” (PLoS ONE, 2013).
Bridges are numbered along the chain shown (N, C = ends). Where no end group is shown, it is not given here.

How the values were obtained:
[1] = test system: PES43 human melanoma cells; assay: CXCL12-dependent Transwell migration of PES43 cells; format: cell-based; details: 100 ng/mL CXCL12 in lower chamber, 16 h, tested 10 nM, 100 nM, 1 µM, 10 µM
Protocol: (§1) Migration was assayed in 24-well Transwell chambers (Corning Inc., Corning, NY) using inserts with an 8-µm pore membrane. Membranes were precoated with collagen (human collagen type I/III) and fibronectin (20 µg/mL each). […] After 16 h incubation, cells on the upper surface of the filter were removed using a cotton wool swab; migration of cells in migration media alone was compared with migration in media containing CXCL12. The cells were counted in ten different fields (original magnification ×40). The migration index was defined as the ratio between migrating cells in the experimental group and migrated cells in the control group. For the wound closure assay, tested cells were allowed to reach confluence in six-well plates containing serum-depleted growth medium and scratched with pipette tips to make wounds. The wound closure was observed microscopically 6 hours post-wounding (OKO Time Lapse).
Experiments were conducted using PES43 cells. (A) Migration was assayed in 24-well Transwell chambers using inserts with 8-µm pore membrane. […] Migrated cells on the lower surface were fixed, stained with H&E and counted microscopically. The results are expressed as the migration index relative to migration in presence of BSA alone. […] Images were acquired with OKO Time Lapse. […] PES43 cells were serum-starved and incubated with CXCL12 (100 ng/ml) alone or in presence of AMD3100/peptides. Each peptide was tested in at least three different experiments. Double tailed T-Test was used for statistical analyses. Differences were considered significant at P<0.05 compared to control.

[2] = test system: CXCR7; assay: Anti-CXCR7 antibody (clone 11G8) binding in CXCR7 overexpressing cells; set-up: species or system human; details: MCF-7 cells; peptides 10 µM, CXCL11 100 nM, 30 min pre-incubation; Figure S3
Protocol: [The procedure below names another target; the source says it served here with some conditions changed.] CXCR4 binding was evaluated as previously described. Briefly 5×10^5 CCRF–CEM cells were pre-incubated with 10 µM peptides or AMD3100 in binding buffer (PBS 1× plus 0.2% BSA and 0.1% NaN3) for 30 minutes at 37°C, 5% CO2 and then labeled for 30 minutes with anti-CXCR4 PE-antibody (FAB170P, clone 12G5, R&D Systems, Minneapolis, MN, USA). The cells were analyzed by FACS Canto II cytofluorometer (Becton Dickinson Immunocytometry Systems, Mountain View, CA, USA).
Fluo-3AM and Pluronic acid were added to each sample to increase Fluo-3AM solubility and improve dye loading into the cells. (TIF) Click here for additional data file.

[3] = test system: SN12C-EGFP renal cancer cells; assay: SN12C-pEGFP subcutaneous xenograft tumor growth; format: in vivo, CD1 nude mice; details: IP 10 days, peptides 2 mg/kg, AMD3100 1.25 mg/kg; measured a week later by fluorescence stereomicroscope; control 65.97±35.1; average
Protocol: (§2) All mice were obtained from Harlan (Bar Harbor, ME, USA) and their care was in accord with institutional guidelines. Twenty-five 6-8-week-old female C57BL/6 mice were inoculated into the tail vein with 5×10^5 B16–CXCR4 cells pre-treated for 30 minutes with peptide S (10 µM), peptide R (10 µM), peptide I (10 µM), or AMD3100 (10 µM). Six hours later intraperitoneal (IP) treatment started with AMD3100 (1.25 mg/kg) or each peptide (2 mg/kg) in sterile PBS once a day for 10 days. A week later the mice were sacrificed. The experiment was repeated three times. The lung metastases assay was also conducted with K7M2 murine osteosarcoma cells. Twenty-five 6-8-week-old female Balb/c mice were injected via tail vein with 2.5×10^5 K7M2 cells pre-treated for 30 minutes with AMD3100 (10 µM), peptide S (10 µM), peptide R (10 µM), peptide I (10 µM) and animals were treated IP daily for 15 days with 2.5 mg/kg for AMD3100 group and 10 mg/kg for each peptide groups. A week later the mice were sacrificed. Xenograft tumor growth was evaluated using pEGFP-SN12C cells in exponential growth phase subcutaneously injected into the right flank of twenty-five 6-8-week-old female CD1 nude mice. 2×10^6 SN12C-pEGFP were injected in the right flank of each mouse and treated with AMD3100 (1.25 mg/kg) and peptides (2 mg/kg) for 10 days ip. A week later mice were euthanized and tumor volume evaluated through Leica MacroFluo fluorescence stereomicroscope (Leica microsystem, Houston, TX). The experiment was repeated three times. The Istituto Nazionale per lo Studio e la Cura dei Tumori, Fondazione Giovanni Pascale Independent Etical Comettee approved the study (CEI/600/12).
6 to 8-week-old female CD1 nude mice were injected subcutaneously with 2×10^6 pEGFP-SN12C cells pre-treated with 10 µM AMD3100 or 10 µM of each peptide. Beginning the following day mice were further treated intraperitoneally for 10 days with 1.25 mg/kg AMD3100 or 2 mg/kg of peptides R, I or S. A week later mice were euthanized and tumor volume evaluated directly from the flank of mice using a Leica MacroFluo fluorescence stereomicroscope (Leica microsystem, Houston, TX) (A). The experiments were repeated three times. B. SN12C-PEGFP cells migration toward CXCL12 in the presence of AMD3100 or Peptide R, S and I.

[4] = test system: K7M2 murine osteosarcoma cells; assay: K7M2 osteosarcoma lung metastases model; format: in vivo, Balb/c mice; details: cells pre-treated 30 min with 10 µM peptide; 10 mg/kg IP daily for 15 days
Protocol: as §2
Figure 4 Peptides R, I and S inhibit murine osteosarcoma lung metastases. (A) Twenty-five 6-8-week-old female Balb/c mice were injected via tail vein with 2.5×10^5 K7M2 cells pre-treated for 30 minutes with AMD3100 (10 µM), peptide R (10 µM), or peptide I (10 µM) or peptide S (10 µM). […]

[5] = test system: CXCR4; assay: Mobilization of hematopoietic precursors and neutrophils; format: in vivo; details: DBA/2 mouse; for duration of mobilization effect compared to AMD3100: preliminary; for stem cell and neutrophil mobilization relative to AMD3100: preliminary evidence
From the text: The development of CXCR4 inhibitors is of increasing interest with AMD3100 (Plerixafor) having been approved by the FDA for stem cell mobilization, [39]. We evaluated peptides R, I and S for their ability to mobilize hematopoietic precursors in a DBA/2 mouse model in a CXCR4 dependent manner.

[6] = test system: K7M2 murine osteosarcoma cells; assay: K7M2 in vitro migration; format: cell-based, mouse; details: Figure 4
Protocol: as §1

| Substance | concentration at which CXCL12-dependent migration was inhibited [1] | binding to CXCR7 (anti-CXCR7 antibody) [2] | tumor volume of SN12C-GFP xenograft [3] | K7M2 lung metastases [4] | duration of mobilization effect compared to AMD3100 [5] | stem cell and neutrophil mobilization relative to AMD3100 [5] | K7M2 in vitro migration [6] |
| --- | --- | --- | --- | --- | --- | --- | --- |
| Arg-Ala-[Cys-Arg-His-Trp-Cys] (RACRHWC; disulfide 3-7) [Peptide S, CXCL12-mimetic disulfide-cyclic peptide] | ≤ 10 nM | unaffected | 44.51±26.4 mm^3 | reduced lung metastases | more durable | as potent stem cell and neutrophil mobilization as does AMD3100 | reduced |
| Arg-Ala-[Cys-Arg-Phe-Phe-Cys] (RACRFFC; disulfide 3-7) [Peptide R, CXCL12-mimetic disulfide-cyclic peptide] | ≤ 10 nM | unaffected | 47.00±16.88 mm^3 | reduced lung metastases | more durable | as potent stem cell and neutrophil mobilization as does AMD3100 | reduced |
| [Cys-Trp-His-Arg-Cys] (CWHRC; disulfide 1-5) [Peptide I, v-MIP-II mimetic disulfide-cyclic peptide] | ≤ 10 nM | unaffected | 39.19±25.8 mm^3 | reduced lung metastases | more durable | as potent stem cell and neutrophil mobilization as does AMD3100 | reduced |
